Measured values reported in ChEMBL document CHEMBL3994635, “Inhibition of LPS-stimulated ROS production by fluorinated and hydroxylated chalcones in RAW 264.7 macrophages with structure-activity relationship study” (Bioorg Med Chem Lett, 2017).

How the values were obtained:
[1] = tested on: RAW264.7; experiment: Cytotoxicity in mouse RAW264.7 cells assessed as cell viability after 24 hrs by MTS assay; format: cell-based; conditions: raw264.7, 24 h
[2] = tested on: RAW264.7; experiment: Inhibition of LPS-stimulated ROS production in mouse RAW264.7 cells preincubated for 1 hr followed by LPS stimulation for 24 hrs measured after 30 mins by CMH2DCFDA probe-based fluorescence assay; format: functional, cell-based
[3] = Cytotoxicity in mouse RAW264.7 cells assessed as cell viability at 1 uM after 24 hrs by MTS assay; format: cell-based; conditions: read-out: Activity
[4] = tested on: RAW264.7; experiment: Inhibition of LPS-stimulated ROS production in mouse RAW264.7 cells after 22 hrs by C-400 fluorescent dye-based assay; format: functional, cell-based; conditions: RAW264.7, 22 h

IC50 [2] | SMILES | Activity [1] | viability at 24 h, 1 µM [3] | IC50 [4]
> 10 µM | O=C(/C=C/c1ccccc1C(F)(F)F)c1ccccc1 | Non-Toxic |  | 
> 10 µM | O=C(/C=C/c1cccc(C(F)(F)F)c1)c1ccccc1 | Non-Toxic |  | 
> 10 µM | O=C(/C=C/c1ccc(C(F)(F)F)cc1)c1ccccc1 | Non-Toxic |  | 
> 10 µM | O=C(/C=C/c1ccc(F)cc1)c1ccccc1O | Non-Toxic |  | 
 | O=C(/C=C/c1ccccc1C(F)(F)F)c1ccccc1O |  | < 90% | 
> 10 µM | O=C(/C=C/c1ccccc1F)c1ccccc1O | Non-Toxic |  | 
> 10 µM | O=C(/C=C/c1cccc(F)c1)c1ccccc1O | Non-Toxic |  | 
> 10 µM | O=C(/C=C/c1ccc(C(F)(F)F)cc1)c1ccccc1O | Non-Toxic |  | 
> 10 µM | O=C(/C=C/c1ccccc1C(F)(F)F)c1ccc(O)cc1 | Non-Toxic |  | 
> 10 µM | O=C(/C=C/c1cccc(F)c1)c1cccc(O)c1 | Non-Toxic |  | 
1.61 µM | O=C(/C=C/c1ccccc1OC(F)(F)F)c1cccc(O)c1 | Non-Toxic |  | 
> 10 µM | O=C(/C=C/c1ccc(OC(F)(F)F)cc1)c1cccc(O)c1 | Non-Toxic |  | 
9.15 µM | O=C(/C=C/c1cccc(F)c1)c1ccc(O)cc1 | Non-Toxic |  | 
 | O=C(/C=C/c1cccc(OC(F)(F)F)c1)c1ccccc1O |  | < 90% | 
 | O=C(/C=C/c1cccc(C(F)(F)F)c1)c1ccccc1O |  | < 90% | 
> 10 µM | O=C(/C=C/c1ccccc1OC(F)(F)F)c1ccccc1 | Non-Toxic |  | 
> 10 µM | O=C(/C=C/c1ccccc1F)c1cccc(O)c1 | Non-Toxic |  | 
> 10 µM | O=C(/C=C/c1ccc(C(F)(F)F)cc1)c1cccc(O)c1 | Non-Toxic |  | 

IC50 [2] | SMILES | Activity [1] | viability at 24 h, 1 µM [3] | IC50 [4]
1.34 µM | O=C(/C=C/c1ccccc1OC(F)(F)F)c1ccc(O)cc1 | Non-Toxic |  | 
1.44 µM | O=C(/C=C/c1cccc(C(F)(F)F)c1)c1ccc(O)cc1 | Non-Toxic |  | 
> 10 µM | O=C(/C=C/c1ccccc1F)c1ccccc1 | Non-Toxic |  | 
> 10 µM | O=C(/C=C/c1ccccc1F)c1ccc(O)cc1 | Non-Toxic |  | 
> 10 µM | O=C(/C=C/c1ccc(OC(F)(F)F)cc1)c1ccc(O)cc1 | Non-Toxic |  | 
 | O=C(/C=C/c1ccccc1OC(F)(F)F)c1ccccc1O |  | < 90% | 
> 10 µM | O=C(/C=C/c1ccc(OC(F)(F)F)cc1)c1ccccc1 | Non-Toxic |  | 
 | O=C(/C=C/c1cccc(C(F)(F)F)c1)c1cccc(O)c1 |  | < 90% | 
> 10 µM | O=C(/C=C/c1ccc(F)cc1)c1cccc(O)c1 | Non-Toxic |  | 
> 10 µM | O=C(/C=C/c1cccc(OC(F)(F)F)c1)c1cccc(O)c1 | Non-Toxic |  | 
> 10 µM | O=C(/C=C/c1cccc(F)c1)c1ccccc1 | Non-Toxic |  | 
> 10 µM | O=C(/C=C/c1cccc(OC(F)(F)F)c1)c1ccccc1 | Non-Toxic |  | 
> 10 µM | O=C(/C=C/c1cccc(OC(F)(F)F)c1)c1ccc(O)cc1 | Non-Toxic |  | 
> 10 µM | O=C(/C=C/c1ccccc1C(F)(F)F)c1cccc(O)c1 | Non-Toxic |  | 
> 10 µM | O=C(/C=C/c1ccc(OC(F)(F)F)cc1)c1ccccc1O | Non-Toxic |  | 
> 10 µM | O=C(/C=C/c1ccc(C(F)(F)F)cc1)c1ccc(O)cc1 | Non-Toxic |  | 
> 10 µM | O=C(/C=C/c1ccc(F)cc1)c1ccc(O)cc1 | Non-Toxic |  | 
 | COc1cc(-c2[o+]c3cc(O)cc(O)c3cc2O)cc(OC)c1O [MALVIDIN CHLORIDE] |  |  | 9 µM
